Measurements as given in ChEMBL document CHEMBL1130110 (J Med Chem, 1997).

What was measured:
[1] = molecular target: Glucagon receptor (Rattus norvegicus) (UniProt P30082); experiment: Relative binding potency expressed as receptor binding IC50 for glucagon by receptor binding IC50 for compound
[2] = molecular target: Glucagon receptor (Rattus norvegicus) (UniProt P30082); experiment: Percent stimulation of cAMP production over basal.; format: functional; set-up: concentration or dose not given beside the values

Glucagon receptor (Rattus norvegicus), sequence (P30082 whole entry): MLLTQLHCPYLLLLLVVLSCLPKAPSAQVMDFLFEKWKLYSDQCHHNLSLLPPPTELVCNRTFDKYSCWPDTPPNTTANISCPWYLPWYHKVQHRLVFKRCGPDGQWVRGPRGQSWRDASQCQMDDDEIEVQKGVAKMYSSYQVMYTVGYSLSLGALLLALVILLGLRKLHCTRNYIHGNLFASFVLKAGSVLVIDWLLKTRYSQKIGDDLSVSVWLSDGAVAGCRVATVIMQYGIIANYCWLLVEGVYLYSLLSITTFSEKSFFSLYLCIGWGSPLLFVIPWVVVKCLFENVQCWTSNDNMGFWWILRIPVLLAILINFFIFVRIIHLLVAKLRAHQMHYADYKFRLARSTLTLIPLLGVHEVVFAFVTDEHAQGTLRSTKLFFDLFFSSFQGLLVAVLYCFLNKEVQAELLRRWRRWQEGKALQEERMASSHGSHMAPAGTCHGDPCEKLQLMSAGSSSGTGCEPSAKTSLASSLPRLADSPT

SMILES	Activity [1] [%]	Activity [2] [%]
CSCC[C@@H](NC(=O)[C@@H](CC(C)C)NC(=O)[C@@H](Cc1c[nH]c2ccccc12)NC(=O)[C@@H](CCC(N)=O)NC(=O)[C@H](NC(=O)[C@@H](Cc1ccccc1)NC(=O)[C@@H](CC(=O)O)NC(=O)[C@@H](CCC(N)=O)NC(=O)[C@@H](C)NC(=O)[C@@H](CCCN=C(N)N)NC(=O)[C@@H](CCCN=C(N)N)NC(=O)[C@@H](CO)NC(=O)[C@@H](CC(=O)O)NC(=O)[C@@H](CC(C)C)NC(=O)[C@@H](Cc1ccc(O)cc1)NC(=O)[C@@H](CCCCN)NC(=O)[C@@H](CO)NC(=O)[C@@H](Cc1ccc(O)cc1)NC(=O)[C@@H](CCC(=O)O)NC(=O)[C@@H](CO)NC(=O)[C@H](NC(=O)[C@H](NC(=O)CNC(=O)[C@@H](CCC(N)=O)NC(=O)[C@H](N)CO)[C@H](C)O)[C@H](C)O)C(C)C)C(=O)N[C@H](CC(N)=O)C(=O)N[C@@H](C(=O)O)[C@H](C)O (stereo in doubt; 12)	< 0.1	0
CSCC[C@@H](NC(=O)[C@@H](CC(C)C)NC(=O)[C@@H](Cc1c[nH]c2ccccc12)NC(=O)[C@@H](CCC(N)=O)NC(=O)[C@H](NC(=O)[C@@H](Cc1ccccc1)NC(=O)[C@@H](CC(=O)O)NC(=O)[C@@H](CCC(N)=O)NC(=O)[C@@H](C)NC(=O)[C@@H](CCCN=C(N)N)NC(=O)[C@@H](CCCN=C(N)N)NC(=O)[C@@H](CO)NC(=O)[C@@H](CC(=O)O)NC(=O)[C@@H](CC(C)C)NC(=O)[C@@H](Cc1ccc(O)cc1)NC(=O)[C@@H](CCCCN)NC(=O)[C@@H](CO)NC(=O)[C@@H](Cc1ccc(O)cc1)NC(=O)[C@@H](CCC(=O)O)NC(=O)[C@@H](CO)NC(=O)[C@H](NC(=O)[C@H](Cc1ccccc1)NC(=O)[C@H](NC(=O)CNC(=O)[C@@H](CCC(N)=O)NC(=O)[C@H](N)CO)[C@H](C)O)[C@H](C)O)C(C)C)C(=O)N[C@H](CC(N)=O)C(=O)N[C@@H](C(N)=O)[C@H](C)O	1.5	0
CSCC[C@@H](NC(=O)[C@@H](CC(C)C)NC(=O)[C@@H](Cc1c[nH]c2ccccc12)NC(=O)[C@@H](CCC(N)=O)NC(=O)[C@H](NC(=O)[C@@H](Cc1ccccc1)NC(=O)[C@@H](CC(=O)O)NC(=O)[C@@H](CCC(N)=O)NC(=O)[C@@H](C)NC(=O)[C@@H](CCCN=C(N)N)NC(=O)[C@@H](CCCN=C(N)N)NC(=O)[C@@H](CO)NC(=O)[C@@H](CC(=O)O)NC(=O)[C@@H](CC(C)C)NC(=O)[C@@H](Cc1ccc(O)cc1)NC(=O)[C@@H](CCCCN)NC(=O)[C@@H](CO)NC(=O)[C@@H](Cc1ccc(O)cc1)NC(=O)[C@@H](CC(=O)O)NC(=O)[C@@H](CO)NC(=O)[C@H](NC(=O)[C@H](NC(=O)CNC(=O)[C@@H](CCC(N)=O)NC(=O)[C@H](N)CO)[C@H](C)O)[C@H](C)O)C(C)C)C(=O)N[C@H](CC(N)=O)C(=O)N[C@@H](C(N)=O)[C@H](C)O	1.2	0
CSCC[C@@H](NC(=O)[C@@H](CC(C)C)NC(=O)[C@@H](Cc1c[nH]c2ccccc12)NC(=O)[C@@H](CCC(N)=O)NC(=O)[C@H](NC(=O)[C@@H](Cc1ccccc1)NC(=O)[C@@H](CC(=O)O)NC(=O)[C@@H](CCC(N)=O)NC(=O)[C@@H](C)NC(=O)[C@@H](CCCN=C(N)N)NC(=O)[C@@H](CCCN=C(N)N)NC(=O)[C@@H](CO)NC(=O)[C@@H](CC(=O)O)NC(=O)[C@@H](CC(C)C)NC(=O)[C@@H](Cc1ccc(O)cc1)NC(=O)[C@@H](CCCCN)NC(=O)[C@@H](CO)NC(=O)[C@@H](Cc1ccc(O)cc1)NC(=O)[C@@H](CC(=O)O)NC(=O)[C@@H](CO)NC(=O)[C@H](NC(=O)[C@H](NC(=O)CNC(=O)[C@@H](CCC(N)=O)NC(=O)[C@@H](CO)NC(=O)[C@H](N)Cc1c[nH]cn1)[C@H](C)O)[C@H](C)O)C(C)C)C(=O)N[C@H](CC(N)=O)C(=O)N[C@@H](C(N)=O)[C@H](C)O	0.3	0
